Measurements reported in patent publication US20060069132A1, “Azolecarboxamide herbicides” (priority 2004, published 2006).

Assays:
[1] = tested on: Surinam grass; assay: Test B pre-/postemergence herbicide test; format: in vivo, Urochloa decumbens; details: for Surinam Grass plant response rating: postemergence, visual rating, scale 0 (no effect) to 100 (complete control)
Outline: (§1)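 Greenhouse pot assay with simultaneous preemergence (treated seed) and postemergence (2–18 cm seedlings) applications of surfactant-containing, non-phytotoxic solvent formulations. Response scored visually 13–15 days later on a 0–100 scale, 100 meaning complete control.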

[2] = tested on: ducksalad; assay: Test B flooded paddy test; format: in vivo, Heteranthera limosa; details: 1000 g ai/ha, visual rating, scale 0 to 100 (0 no effect, 100 complete control), 13 to 15 days
Outline: (§2)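 Postemergence plants were sprayed with formulated test chemicals at 2 to 18 cm height (1- to 4-leaf stage); paddy species were grown to the 2-leaf stage. After 13 to 15 days in a greenhouse, injury was rated visually against untreated controls on a 0–100 scale (0 = no effect, 100 = complete control).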

[3] = tested on: large crabgrass; assay: Test B pre-/postemergence herbicide test; format: in vivo, Digitaria sanguinalis; details: for Crabgrass, Large plant response rating: postemergence, visual rating, scale 0 (no effect) to 100 (complete control)
Outline: as §1

[4] = tested on: barnyardgrass; assay: Test A pre-/postemergence herbicide test; format: in vivo, Echinochloa crus-galli
Outline: (§3)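 Greenhouse injury scoring (0–100, complete control = 100) at approximately ten days follows simultaneous pre- and postemergence application. Soil received a directed spray after seeding; seedlings of 2–10 cm at the one- to two-leaf stage were sprayed to runoff.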

[5] = tested on: redroot pigweed; assay: Test A pre-/postemergence herbicide test; format: in vivo, Amaranthus retroflexus
Outline: as §3

[6] = tested on: morningglory; assay: Test A pre-/postemergence herbicide test; format: in vivo, Ipomoea spp.
Outline: as §3

[7] = tested on: barnyardgrass; assay: Test B flooded paddy test; format: in vivo, Echinochloa crus-galli; details: 1000 g ai/ha, visual rating, scale 0 to 100 (0 no effect, 100 complete control), 13 to 15 days
Outline: as §2

[8] = tested on: giant foxtail; assay: Test B pre-/postemergence herbicide test; format: in vivo, Setaria faberi; details: for Foxtail, Giant plant response rating: postemergence, visual rating, scale 0 (no effect) to 100 (complete control)
Outline: as §1

[9] = tested on: corn; assay: Test B pre-/postemergence herbicide test; format: in vivo, Zea mays; details: for Corn plant response rating: postemergence, visual rating, scale 0 (no effect) to 100 (complete control)
Outline: as §1

[10] = tested on: lambsquarters; assay: Test B pre-/postemergence herbicide test; format: in vivo, Chenopodium album; details: for Lambsquarters plant response rating: postemergence, visual rating, scale 0 (no effect) to 100 (complete control)
Outline: as §1

[11] = tested on: morningglory; assay: Test B pre-/postemergence herbicide test; format: in vivo, Ipomoea coccinea; details: for Morningglory plant response rating: postemergence, visual rating, scale 0 (no effect) to 100 (complete control)
Outline: (§4)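 Seeds were planted and treated preemergence with compounds formulated in a non-phytotoxic solvent mixture containing surfactant, while plants at the 1- to 4-leaf stage (2 to 18 cm) received postemergence sprays. Flooded paddy plants were grown to the 2-leaf stage. After 13 to 15 days in a greenhouse, injury was visually rated 0–100 against untreated controls.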

[12] = tested on: small flower umbrella sedge; assay: Test B flooded paddy test; format: in vivo, Cyperus difformis; details: 1000 g ai/ha, visual rating, scale 0 to 100 (0 no effect, 100 complete control), 13 to 15 days
Outline: as §2

[13] = tested on: wild oat; assay: Test B postemergence herbicide test; format: in vivo, Avena fatua; details: postemergence, visual rating, scale 0 (no effect) to 100 (complete control)
Outline: (§5)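 Greenhouse test; postemergence application to plants at 1–4 leaves (2–18 cm); paddy species at 2 leaves; evaluated visually vs controls at 13–15 days; scale 0–100 (100 = complete control).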

[14] = tested on: velvetleaf; assay: Test A pre-/postemergence herbicide test; format: in vivo, Abutilon theophrasti
Outline: as §3

[15] = tested on: giant foxtail; assay: Test A pre-/postemergence herbicide test; format: in vivo, Setaria faberi
Outline: as §3

[16] = tested on: barnyardgrass; assay: Test B pre-/postemergence herbicide test; format: in vivo, Echinochloa crus-galli; details: for Barnyardgrass plant response rating: postemergence, visual rating, scale 0 (no effect) to 100 (complete control)
Outline: as §4

[17] = tested on: blackgrass; assay: Test B postemergence herbicide test; format: in vivo, Alopecurus myosuroides; details: postemergence, visual rating, scale 0 (no effect) to 100 (complete control)
Outline: as §2

[18] = tested on: wheat; assay: Test B postemergence herbicide test; format: in vivo, Triticum aestivum; design: key to Wheat plant response rating: 0 = no effect, 100 = complete control; details: postemergence, visual rating, scale 0 (no effect) to 100 (complete control)
Outline: as §5

[19] = tested on: rice; assay: Test B flooded paddy test; format: in vivo, Oryza sativa; details: 1000 g ai/ha, visual rating, scale 0 to 100 (0 no effect, 100 complete control), 13 to 15 days
Outline: as §5

[20] = tested on: large crabgrass; assay: Test A pre-/postemergence herbicide test; format: in vivo, Digitaria sanguinalis
Outline: as §3

[21] = tested on: velvetleaf; assay: Test B pre-/postemergence herbicide test; format: in vivo, Abutilon theophrasti; details: for Velvetleaf plant response rating: postemergence, visual rating, scale 0 (no effect) to 100 (complete control)
Outline: as §1

[22] = tested on: cocklebur; assay: Test B pre-/postemergence herbicide test; format: in vivo, Xanthium strumarium; details: for Cocklebur plant response rating: postemergence, visual rating, scale 0 (no effect) to 100 (complete control)
Outline: as §4

[23] = tested on: pigweed; assay: Test B pre-/postemergence herbicide test; format: in vivo, Amaranthus retroflexus; details: for Pigweed plant response rating: postemergence, visual rating, scale 0 (no effect) to 100 (complete control)
Outline: as §1

[24] = 125 g ai/ha, 0 = no effect, 100 = complete control, preemergence
[25] = 500 g ai/ha, visual rating 0-100, 0 no effect, 100 complete control, preemergence
[26] = Postemergence, 500 g ai/ha, 0 to 100 scale, 0 no effect, 100 complete control
[27] = Postemergence, 2000 g ai/ha, 0 to 100 scale, 0 no effect, 100 complete control
[28] = Preemergence, 2000 g ai/ha, visual rating, 0 to 100 scale (0 no effect, 100 complete control)
[29] = preemergence, 500 g ai/ha, visual injury, 0 to 100 scale (0 no effect, 100 complete control)

CC(=NO)c1cccc(NC(=O)c2cn(C(C)C)nc2C)c1 [Compound 180]
Surinam Grass plant response rating (0 to 100 scale) [1, 24]: 0
Plant response rating, Surinam Grass [1, 25]: 0
Surinam Grass plant response rating ([1]; 125 g ai/ha): 0
Surinam Grass plant response rating ([1]; 500 g ai/ha): 0
Ducksalad plant response rating [2]: 20
Crabgrass, Large plant response rating (0 to 100 scale) [3, 24]: 0
Plant response rating, Crabgrass, Large [3, 25]: 0
Crabgrass, Large plant response rating ([3]; 125 g ai/ha): 0
Crabgrass, Large plant response rating ([3]; 500 g ai/ha): 0
Barnyardgrass plant response rating [4, 26]: 20
Plant response rating, Barnyardgrass [4, 27]: 30
Barnyardgrass plant response rating [4, 28]: 0
Barnyardgrass plant response rating [4, 29]: 0
Pigweed plant response rating [5, 26]: 30
Plant response rating, Pigweed [5, 27]: 95
Pigweed plant response rating [5, 28]: 90
Pigweed plant response rating [5, 29]: 0
Morningglory plant response rating [6, 26]: 10
Plant response rating, Morningglory [6, 27]: 15
Morningglory plant response rating [6, 28]: 10
Morningglory plant response rating [6, 29]: 0
Barnyardgrass plant response rating [7]: 20
Foxtail, Giant plant response rating (0 to 100 scale) [8, 24]: 0
Plant response rating, Foxtail, Giant [8, 25]: 0
Foxtail, Giant plant response rating ([8]; 125 g ai/ha): 0
Foxtail, Giant plant response rating ([8]; 500 g ai/ha): 0
Corn plant response rating (0 to 100 scale) [9, 24]: 0
Plant response rating, Corn [9, 25]: 0
Corn plant response rating ([9]; 125 g ai/ha): 0
Corn plant response rating ([9]; 500 g ai/ha): 0
Lambsquarters plant response rating (0 to 100 scale) [10, 24]: 0
Plant response rating, Lambsquarters [10, 25]: 0
Lambsquarters plant response rating ([10]; 125 g ai/ha): 0
Lambsquarters plant response rating ([10]; 500 g ai/ha): 0
Morningglory plant response rating (0 to 100 scale) [11, 24]: 0
Plant response rating, Morningglory [11, 25]: 0
Morningglory plant response rating ([11]; 125 g ai/ha): 0
Morningglory plant response rating ([11]; 500 g ai/ha): 0
Sedge, Umbrella plant response rating [12]: 0
Oat, Wild plant response rating ([13]; 125 g ai/ha): 0
Oat, Wild plant response rating ([13]; 500 g ai/ha): 0
Velvetleaf plant response rating [14, 26]: 10
Plant response rating, Velvetleaf [14, 27]: 15
Velvetleaf plant response rating [14, 28]: 15
Velvetleaf plant response rating [14, 29]: 0
Foxtail, Giant plant response rating [15, 26]: 15
Plant response rating, Foxtail, Giant [15, 27]: 20
Foxtail, Giant plant response rating [15, 28]: 10
Foxtail, Giant plant response rating [15, 29]: 0
Barnyardgrass plant response rating (0 to 100 scale) [16, 24]: 0
Plant response rating, Barnyardgrass [16, 25]: 0
Barnyardgrass plant response rating ([16]; 125 g ai/ha): 0
Barnyardgrass plant response rating ([16]; 500 g ai/ha): 0
Blackgrass plant response rating ([17]; 125 g ai/ha): 0
Blackgrass plant response rating ([17]; 500 g ai/ha): 0
Wheat plant response rating ([18]; 125 g ai/ha): 0
Wheat plant response rating ([18]; 500 g ai/ha): 0
Rice plant response rating [19]: 0
Crabgrass, Large plant response rating [20, 26]: 20
Plant response rating, Crabgrass, Large [20, 27]: 35
Crabgrass, Large plant response rating [20, 28]: 50
Crabgrass, Large plant response rating [20, 29]: 10
Velvetleaf plant response rating (0 to 100 scale) [21, 24]: 0
Plant response rating, Velvetleaf [21, 25]: 0
Velvetleaf plant response rating ([21]; 125 g ai/ha): 0
Velvetleaf plant response rating ([21]; 500 g ai/ha): 0
Cocklebur plant response rating (0 to 100 scale) [22, 24]: 0
Plant response rating, Cocklebur [22, 25]: 0
Cocklebur plant response rating ([22]; 125 g ai/ha): 0
Cocklebur plant response rating ([22]; 500 g ai/ha): 0
Pigweed plant response rating (0 to 100 scale) [23, 24]: 0
Plant response rating, Pigweed [23, 25]: 0
Pigweed plant response rating ([23]; 125 g ai/ha): 0
Pigweed plant response rating ([23]; 500 g ai/ha): 0
